From patent US20250032651A1, “[177LU] LUTETIUM-PSMA I&T COMPOSITION AND DOSIMETRY, KIT, METHOD OF MAKING, AND METHOD OF USING THEREOF” (Curium US LLC, priority 2022, published 2025)
Where “and” joins values, the source holds several entries; their conditions need not be identical. Equal values may be shown once.

How the values were obtained:
[1] = Radiochemical purity of ^177Lu-PSMA I&T by HPLC in different formulation compositions, hours post EOS (Example 3); format: physicochemical
Experimental: Product formulation details are described in Table 6.
Radiochemical purity of each solution was followed by HPLC up to 71-93 hours post-radiolabeling.

[2] = Batch release QC / patient dose batch data; format: physicochemical; settings: patient dose batches
Experimental: In another embodiment, the radioactivity is measured in a dose calibrator. The radioactive amount of [^177Lu]Lu-PSMA I&T is determined when the dose is dispensed.
In one embodiment, bacterial endotoxin content is determined for each batch before release using a PTS-tester (Ph Eur method D) and sterility is determined according to Ph Eur.
The specifications listed were used as release parameters except for sterility testing. Sterility was tested on all batches post-release.

**Q.** Which results are given for `O=C([O-])CC[C@H](NC(=O)N[C@@H](CCCCNC(=O)CCCCCCC(=O)NCCCC[C@@H](NC(=O)[C@@H](Cc1ccccc1)NC(=O)[C@@H](Cc1ccc(O)c(I)c1)NC(=O)CC[C@H](C(=O)[O-])N1CCN(CC(=O)[O-])CCN(CC(=O)[O-])CCN(CC(=O)[O-])CC1)C(=O)[O-])C(=O)[O-])C(=O)[O-].[177Lu+3].[H+].[H+].[H+].[H+].[H+]` [^177Lu-PSMA I&T, (3S,7S,26R,29R,32R,37R)-29-benzyl-32-(4-hydroxy-3-iodobenzyl)-5,13,20,28,31,34-hexaoxo-37-(4,7,10-tris(carboxymethyl)-1,4,7,10-tetraazacyclododecan-1-yl)-4,6,12,21,27,30,33-heptaazaheptatriacontane-1,3,7,26,37-pentacarboxylic acid; lutetium-177 (III)]?
**A.** radiochemical purity as measured by HPLC ([1]; 10 ml high RAC formulation, 42.5 mg/ml ascorbic acid, 0 hours post EOS): at least 99%; radiochemical purity as measured by HPLC ([1]; 10 ml high RAC formulation, 42.5 mg/ml ascorbic acid, 46 hours post EOS): at least 93.3%; radiochemical purity as measured by HPLC ([1]; 20 ml low RAC formulation, 31 mg/ml ascorbic acid, 0 hours post EOS): at least 99.1%; adequate radiochemical stability (radiochemical purity at least 95%) ([1]; about 31 mg/ml ascorbic acid, pH about 4.5, radioactivity concentration about 640 MBq/ml or below): four; decrease in radiochemical purity over time at pH 4.5 compared with pH 7 ([1]; high RAC solutions): two times slower; radiochemical purity ([1]; high radioactivity concentration, pH 4.5, 42.5 mg/ml ascorbic acid, 24 hours post EOS): 98.0%; radiochemical purity ([1]; high radioactivity concentration, pH 4.5, 42.5 mg/ml ascorbic acid, 46 hours post EOS): 96.7%; radiochemical purity ([1]; high radioactivity concentration, pH 4.5, 42.5 mg/ml ascorbic acid, 67 hours post EOS): 95.3%; radiochemical purity ([1]; high radioactivity concentration, pH 4.5, 42.5 mg/ml ascorbic acid, 71 hours post EOS): 95.2%; radiochemical stability (radiochemical purity) ([1]; low RAC solution, pH 4.5, ascorbic acid 31 mg/ml, for 72 hours or longer): above 95.0%; radiochemical purity ([1]; low radioactivity concentration 579 MBq/ml, pH 4.5, 21 mg/ml ascorbic acid, 92 hours post EOS): 96.0%; radiochemical purity ([1]; low radioactivity concentration 588.5 MBq/ml, pH 4.5, 31 mg/ml ascorbic acid, 20 hours post EOS): 98.7%; radiochemical purity ([1]; low radioactivity concentration 588.5 MBq/ml, pH 4.5, 31 mg/ml ascorbic acid, 44 hours post EOS): 98.0%; radiochemical purity ([1]; low radioactivity concentration 588.5 MBq/ml, pH 4.5, 31 mg/ml ascorbic acid, 69 hours post EOS): 97.4%; radiochemical purity ([1]; low radioactivity concentration 588.5 MBq/ml, pH 4.5, 31 mg/ml ascorbic acid, 93 hours post EOS): 97.0%; radiochemical purity ([1]; low radioactivity concentration 626 MBq/ml, pH 5.0, 31 mg/ml ascorbic acid, 0 hours post EOS): 99.2%; radiochemical purity ([1]; low radioactivity concentration 626 MBq/ml, pH 5.0, 31 mg/ml ascorbic acid, 25 hours post EOS): 98.4%; radiochemical purity ([1]; low radioactivity concentration 626 MBq/ml, pH 5.0, 31 mg/ml ascorbic acid, 47 hours post EOS): 97.3%; radiochemical stability (radiochemical purity) ([1]; lowered formulation radioactivity concentration, for 72 hours, experiments conducted previously): above 95.0%

**Q.** For `O=C([O-])CC[C@H](NC(=O)N[C@@H](CCCCNC(=O)CCCCCCC(=O)NCCCC[C@@H](NC(=O)[C@@H](Cc1ccccc1)NC(=O)[C@@H](Cc1ccc(O)c(I)c1)NC(=O)CC[C@H](C(=O)[O-])N1CCN(CC(=O)[O-])CCN(CC(=O)[O-])CCN(CC(=O)[O-])CC1)C(=O)[O-])C(=O)[O-])C(=O)[O-].[177Lu+3].[H+].[H+].[H+].[H+].[H+]` [Lu-177 PSMA I&T], which “Measured PSMA Sum” value [2] is on record?
**A.** 5.0 µg/mL

**Q.** And the “Theoretical PSMA Sum” value [2]?
**A.** 5.9 µg/mL and 6.4 µg/mL
